Laboratory results published in US20070053931A1, “Dietary supplements for treating hypertension” (ULTRA BIOTECH LIMITED, priority 2002, published 2007).

System: Wistar rats
Assay: Control of essential hypertension in Wistar rats (testosterone propionate-induced blood pressure elevation)
Assay type: in vivo, rat
Description: Unless otherwise specified, all compositions of interest were administered to the animals by intragastric feeding.
To test the ability of the activated yeast compositions to reduce blood pressure, thirty-two healthy Wistar rats of average weight of about 200±20 g (8-10 months old, half of them male and the other half female) were randomly divided into four equal groups, Groups A, B, C and D. Blood pressure of each rat was measured with a manometer for three consecutive days. After three days, each rat was subcutaneously injected with 4 mg of testosterone propionate in 0.4 ml of sesame oil per day for fourteen consecutive days.
A composition of interest (2 ml/kg/day) was then administered to each rat for sixteen consecutive days, while their blood pressure level was monitored every four days. Rats in Groups A, B, C and D received distilled water, reserpine, the activated yeast composition and the control yeast composition, respectively.

COC(=O)[C@H]1[C@H]2C[C@@H]3c4[nH]c5cc(OC)ccc5c4CCN3C[C@H]2C[C@@H](OC(=O)c2cc(OC)c(OC)c(OC)c2)[C@@H]1OC [reserpine]
Blood Pressure After Administration of a Composition (Wistar rats made hypertensive with 4 mg/day s.c. testosterone propionate for 14 days, composition 2 ml/kg/day intragastric for sixteen consecutive days): 15.3 ± 0.89 kPa | Change in Blood Pressure (Value in Col. 3 − Value in Col. 2) (after administration of composition vs after testosterone injection, 2 ml/kg/day intragastric, 16 days): 1.4 ± 0.33 kPa
